This is an account of results in patent publication US9999616B2 (ZENITH EPIGENETICS LTD., priority 2013, dated 2018).

Usually IC50 stands for the concentration needed to halve the response being measured.

Experiment [1] relates to c-myc in Human AML MV4-11 cells. Briefly: Inhibition of cMYC expression (mRNA, real-time PCR) in MV4-11 cells. The class given is cell-based. The following applies: 3 h treatment, cMYC mRNA by real-time PCR. As to the method:
MV4-11 cells (CRL-9591) were plated at a density of 2.5×10^4 cells per well in 96 well U-bottom plates and treated with increasing concentrations of test compound or DMSO (0.1%) in IMDM media containing 10% FBS and penicillin/streptomycin, and incubated for 3 h at 37′C. Triplicate wells were used for each concentration. Cells were pelleted by centrifugation and harvested using the mRNA Catcher PLUS kit according to manufacturer's instructions. The eluted mRNA isolated was then used in a one-step quantitative real-time PCR reaction, using components of the RNA UltraSense™ One-Step Kit (Life Technologies) together with Applied Biosystems TaqMan® primer-probes for cMYC and Cyclophilin. Real-time PCR plates were run on a ViiA™7 real time PCR machine (Applied Biosystems), data was analyzed, normalizing the Ct values for cMYC to an internal control, prior to determining the fold expression of each sample, relative to the control.
A general note: Real-time PCR tracks product formation cycle by cycle.

In another experiment the test system is Human AML MV-4-11 cells. Briefly: Inhibition of cell proliferation in MV4-11 cells (CellTiter Aqueous One). The class given is cell-based. Conditions: for IC50: MV4-11, 72 h; for Cell Proliferation activity: 72 h. The procedure: MV4-11 cells (CRL-9591) were plated at a density of 5×10^4 cells per well in 96 well flat bottom plates and treated with increasing concentrations of test compound or DMSO (0.1%) in IMDM media containing 10% FBS and penicillin/streptomycin. Triplicate wells were used for each concentration and a well containing only media was used as a control. Plates were incubated at 37° C., 5% CO2 for 72 h before adding 20 µL of the CellTiter Aqueous One Solution (Promega) to each well and incubated at 37° C., 5% CO2 for an additional 3-4 h. The absorbance was read at 490 nm in a spectrophotometer and the percentage of cell titer relative to DMSO-treated cells was calculated after correcting for background by subtracting the blank well's signal. IC50 values were calculated using the GraphPad Prism software.

Experiment [2] addresses Brd4 bromodomain 1 (BRD4(1)) (Homo sapiens, UniProt O60885). Briefly: Inhibition of tetra-acetylated histone H4 binding to Brd4 bromodomain 1, measured by FRET (HTRF). The following applies: 2 h at room temperature. The arrangement: made in house; host or cells: E. coli BL21(DE3). As to the method:
Proteins were cloned and overexpressed with a N-terminal 6×His tag, then purified by nickel affinity followed by size exclusion chromatography. Briefly, E. coli BL21(DE3) cells were transformed with a recombinant expression vector encoding N-terminally Nickel affinity tagged bromodomains from Brd2, Brd3, Brd4. Cell cultures were incubated at 37° C. with shaking to the appropriate density and induced overnight with IPTG. The supernatant of lysed cells was loaded onto Ni-IDA column for purification. Eluted protein was pooled, concentrated and further purified by size exclusion chromatography. Fractions representing monomeric protein were pooled, concentrated, aliquoted, and frozen at −80° C. for use in subsequent experiments.
Binding of tetra-acetylated histone H4 and BET bromodomains was confirmed by a Homogenous Time Resolved Fluorescence Resonance Energy Transfer (HTRF®) method. N-terminally His-tagged bromodomains (200 nM) and biotinylated tetra-acetylated histone H4 peptide (25-50 nM, Millipore) were incubated in the presence of Europium Cryptate-labeled streptavidin (Cisbio Cat. #610SAKLB) and XL665-labeled monoclonal anti-His antibody (Cisbio Cat. #61HISXLB) in a white 96 well microtiter plate (Greiner). For inhibition assays, serially diluted test compound was added to these reactions in a 0.2% final concentration of DMSO. Duplicate wells were used for each concentration tested. Final buffer concentrations were 30 mM HEPES pH 7.4, 30 mM NaCl, 0.3 mM CHAPS, 20 mM phosphate pH 7.0, 320 mM KF, 0.08% BSA. After a 2 h incubation at room temperature, fluorescence was measured at 665 and 620 nm with a SynergyH4 plate reader (Biotek). The binding inhibitory activity was shown by a decrease in 665 nm relative to 620 nm fluorescence. IC50 values were determined from a dose response curve.
Background: Time-resolved FRET reads energy transfer from a long-lived donor to a nearby acceptor.

Consider `Cc1noc(C)c1-c1cc(-c2cnn(C)c2)c2nc[nH]c2c1` [Example Compound 29, 3,5-dimethyl-4-(4-(1-methyl-1H-pyrazol-4-yl)-1H-benzo[d]imidazol-6-yl)isoxazole], for which the IC50 was 0.3 to 3 µM in experiment [1], 3 to 30 µM in the experiment with Human AML MV-4-11 cells and no more than 0.3 µM in experiment [2].

Take `Cc1noc(C)c1CNc1cc(-c2c(C)noc2C)cc2[nH]cnc12` [Example Compound 39, 6-(3,5-dimethyl-isoxazol-4-yl)-N-((3,5-dimethyl-isoxazol-4-yl)methyl)-1H-benzo[d] imidazol-4-amine]: the values for the IC50 (in experiment [1]; with Human AML MV-4-11 cells; in experiment [2]) were 0.3 to 3 µM, 0.3 to 3 µM and no more than 0.3 µM, respectively.

Take `Cc1noc(C)c1-c1cc(Nc2ccc(Cl)cc2)c2nc[nH]c2c1` [Example Compound 40, N-(4-chlorophenyl)-6-(3,5-dimethyl-isoxazol-4-yl)-1H-benzo[d] imidazol-4-amine]: the IC50 with Human AML MV-4-11 cells was 3 to 30 µM; in experiment [2] it was no more than 0.3 µM.

As to `Cc1noc(C)c1-c1cc(NCc2ccccn2)c2nc[nH]c2c1` [Example Compound 47, 6-(3,5-dimethyl-isoxazol-4-yl)-N-(pyridin-2-ylmethyl)-1H-benzo[d] imidazol-4-amine], the figures for the IC50 (in experiment [1]; with Human AML MV-4-11 cells; in experiment [2]) were 0.3 to 3 µM, 0.3 to 3 µM and no more than 0.3 µM, respectively.

Turning to `Cc1noc(C)c1-c1cc(-c2ccc[nH]c2=O)c2nc[nH]c2c1` [Example Compound 56, 3-(6-(3,5-dimethyl-isoxazol-4-yl)-1H-benzo[d]imidazol-4-yl)pyridin-2(1H)-one], in the experiment with Human AML MV-4-11 cells, the “Cell Proliferation activity” value is recorded as “Not active”. For the same molecule, in experiment [2], the IC50 lay in the range of 0.3 to 3 µM.

Regarding `Cc1noc(C)c1-c1cc(-c2c(C)noc2C)c2nn[nH]c2c1` [Example Compound 95, 4,4′-(1H-benzo[d][1,2,3]triazole-4,6-diyl)bis(3,5-dimethylisoxazole)], the “Cell Proliferation activity” value with Human AML MV-4-11 cells was “Not active”. Further, in experiment [2], the IC50 was 0.3 to 3 µM.

Regarding `CCNc1nc2c(-c3cccnc3C)cc(-c3c(C)noc3C)cc2[nH]1` [Example Compound 100, 6-(3,5-dimethylisoxazol-4-yl)-N-ethyl-4-(2-methylpyridin-3-yl)-1H-benzo[d]imidazol-2-amine], the IC50 is no more than 0.3 µM in experiment [1], 0.3 to 3 µM with Human AML MV-4-11 cells and no more than 0.3 µM in experiment [2].

Take `Cc1nc2c(-c3ccc4c(c3)OCO4)cc(-c3c(C)noc3C)cc2[nH]1` [Example Compound 103, 4-(4-(benzo[d] [1,3]dioxol-5-yl)-2-methyl-1H-benzo[d]imidazol-6-yl)-3,5-dimethyl isoxazole]: the IC50 in experiment [1] was 0.3 to 3 µM; in the experiment on Human AML MV-4-11 cells, 0.3 to 3 µM; in experiment [2], no more than 0.3 µM.

For `Cc1nc2c(-c3cncc(F)c3C)cc(-c3c(C)noc3C)cc2[nH]1` [Example Compound 125, 4-(4-(5-fluoro-4-methyl-pyridin-3-yl)-2-methyl-1H-benzo[d]imidazol-6-yl)-3,5-dimethyl isoxazole], the IC50 in experiment [1] is 0.3 to 3 µM; with Human AML MV-4-11 cells it was 0.3 to 3 µM; in experiment [2], no more than 0.3 µM.

Take `Cc1nc2c(-c3cccc(C(N)=O)c3C)cc(-c3c(C)noc3C)cc2[nH]1` [Example Compound 126, 3-(6-(3,5-dimethylisoxazol-4-yl)-2-methyl-1H-benzo[d]imidazol-4-yl)-2-methylbenzamide]: the IC50 in experiment [1] is no more than 0.3 µM; with Human AML MV-4-11 cells it was 0.3 to 3 µM; in experiment [2], no more than 0.3 µM.

On to `Cc1noc(C)c1-c1cc(-c2c(C)nn(C)c2C)c2nc(N3CCOCC3)[nH]c2c1` [Example Compound 184, 4-(6-(3,5-dimethyl-isoxazol-4-yl)-4-(1,3,5-trimethyl-1H-pyrazol-4-yl)-1H-benzo[d]imidazol-2-yl)morpholine], for which the IC50 (in experiment [1]; in the experiment on Human AML MV-4-11 cells; in experiment [2]) was no more than 0.3 µM each time.

Turning to `Cc1noc(C)c1-c1cc(-c2c(C)nn(C)c2C)c2nc(NC3CCN(C)CC3)[nH]c2c1` [Example Compound 185, 6-(3,5-dimethyl-isoxazol-4-yl)-N-(1-methyl-piperidin-4-yl)-4-(1,3,5-trimethyl-1H-pyrazol-4-yl)-1H-benzo[d] imidazol-2-amine], the IC50 in experiment [1] was 0.3 to 3 µM; in the experiment with Human AML MV-4-11 cells, 0.3 to 3 µM; in experiment [2], no more than 0.3 µM.

As for `CSc1nc2c(-c3c(C)nn(C)c3C)cc(-c3c(C)noc3C)cc2[nH]1` [Example Compound 187, 3,5-dimethyl-4-(2-(methylthio)-4-(1,3,5-trimethyl-1H-pyrazol-4-yl)-1H-benzo[d]imidazol-6-yl)isoxazole], the IC50 (in experiment [1]; in the experiment on Human AML MV-4-11 cells; in experiment [2]) was no more than 0.3 µM in each case.

For `CSc1nc2c(-c3c(C)nn(C)c3C)cc(-c3c(C)noc3C)cc2n1C` [Example Compound 188, 3,5-dimethyl-4-(1-methyl-2-(methylthio)-4-(1,3,5-trimethyl-1H-pyrazol-4-yl)-1H-benzo[d]imidazol-6-yl)isoxazole], the half-inhibitory concentration (IC50) (in experiment [1]; in the experiment on Human AML MV-4-11 cells; in experiment [2]) was 0.3 to 3 µM throughout.

In the case of `Cc1noc(C)c1-c1cc(-c2c(C)nn(C)c2C)c2nc(NC3CCOCC3)[nH]c2c1` [Example Compound 190, 6-(3,5-dimethyl-isoxazol-4-yl)-N-(tetrahydro-2H-pyran-4-yl)-4-(1,3,5-trimethyl-1H-pyrazol-4-yl)-1H-benzo[d] imidazol-2-amine], the figures for the IC50 (in experiment [1]; in the experiment on Human AML MV-4-11 cells; in experiment [2]) were 0.3 to 3 µM, no more than 0.3 µM and no more than 0.3 µM, respectively.

With `Cc1ccc(C(N)=O)cc1-c1cc(-c2c(C)noc2C)cc2[nH]c(N3CCOCC3)nc12` [Example Compound 197, 3-(6-(3,5-dimethyl-isoxazol-4-yl)-2-morpholino-1H-benzo[d]imidazol-4-yl)-4-methyl benzamide], the IC50 in experiment [1] was 0.3 to 3 µM; with Human AML MV-4-11 cells it was 0.3 to 3 µM; in experiment [2], no more than 0.3 µM.

As to `Cc1ccc(C(=O)N2CCCC2)cc1-c1cc(-c2c(C)noc2C)cc2[nH]c(N3CCCC3)nc12` [Example Compound 218, (3-(6-(3,5-dimethylisoxazol-4-yl)-2-(pyrrolidin-1-yl)-1H-benzo[d]imidazol-4-yl)-4-methylphenyl)(pyrrolidin-1-yl)methanone], the IC50 in experiment [2] is no more than 0.3 µM.

In the case of `Cc1ccc(C(N)=O)cc1-c1cc(-c2c(C)noc2C)cc2[nH]c(NCc3cccnc3)nc12` [Example Compound 219, 3-(6-(3,5-dimethyl-isoxazol-4-yl)-2-((pyridin-3-ylmethyl)amino)-1H-benzo[d]imidazol-4-yl)-4-methyl-benzamide], the IC50 in experiment [2] is no more than 0.3 µM.

As to `Cc1ccc(C(N)=O)cc1-c1cc(-c2c(C)noc2C)cc2[nH]c(NCc3ccccc3)nc12` [Example Compound 220, 3-(2-(benzyl-amino)-6-(3,5-dimethylisoxazol-4-yl)-1H-benzo[d]imidazol-4-yl)-4-methyl-benzamide], in experiment [2], the IC50 was no more than 0.3 µM.

Regarding `Cc1noc(C)c1-c1cc(-c2c(C)nn(C)c2C)c2nc(NCc3cccnc3)[nH]c2c1` [Example Compound 221, 6-(3,5-dimethyl-isoxazol-4-yl)-N-(pyridin-3-ylmethyl)-4-(1,3,5-trimethyl-1H-pyrazol-4-yl)-1H-benzo[d] imidazol-2-amine], in experiment [2], the IC50 is no more than 0.3 µM.

As for `Cc1noc(C)c1-c1cc(-c2c(C)noc2C)c2nc(NC3CCN(C)CC3)[nH]c2c1` [Example Compound 232, 4,6-bis(3,5-dimethyl-isoxazol-4-yl)-N-(1-methyl-piperidin-4-yl)-1H-benzo[d] imidazol-2-amine], the IC50 is 0.3 to 3 µM in the experiment on Human AML MV-4-11 cells and no more than 0.3 µM in experiment [2].
